Where two headings read alike, the source gives them in different places.

Data set [1] can be described thus: Conductivity determination (Malvern Zetasizer Nano). It counts as physicochemical. The method, then: A range of standards having sodium chloride concentrations of 0, 75, 100, 150, 250 and 300 mM were prepared from a stock solution of 1500 mM sodium chloride by dilution in water for injection.
Immunogenic compositions were prepared using M72 with two N-terminal His residues according to the procedures provided in Example 8. To investigate the contribution from the antigen itself and any residual materials in the purified bulk, placebo lyophilisation cakes were also prepared by excluding the antigen component.
Using a Malvern Zetasizer Nano and 1.5 ml of each sample in folded capillary cells, a voltage of 30 to 150 V (determined automatically by the instrument) was applied and the conductivity determined.

Data set [2] deals with chicken Red Blood cells (RBC). The experiment in a line: QS21 lytic activity, haemolysis assay (limit test). It is filed as cell-based. The method, then:
QS21 is known to lyse red blood cells (RBC).
QS21 lytic activity was measured by a haemolysis assay using chicken Red Blood cells (RBC). RBC were centrifuged at 550 g at 4° C. Supernatant was discarded. The pellet was carefully resuspended in PBS buffer to reach the initial volume and the same operation was repeated until supernatant was no longer red (generally 3 times). The pellet was stored at 4° C. for 3 to 4 days maximum if not used directly (and washed again the day it is used) or was diluted around 10 times in buffer if used the same day.
A QS21 dose range curve was prepared in ASA buffer (in salt or in sorbitol buffer following the ASA sample tested) extemporaneously and the adjuvant samples (containing a 50 ug or 90 ug equivalent of QS21 meaning the equivalent of 500 ul or 900 ul ASA) were prepared. Final volume was adjusted to 900 ul in standards and samples with adequate buffer (containing or not sorbitol as a function of the buffer of the sample tested). Due to its opalescence, ASA interferes with optical density (OD). ASA “blanks” were thus prepared and their OD was subtracted from the OD of ASA tested samples. Those blanks corresponded to the same ASA volume as the volume tested in samples, but adjusted to 1 ml with buffer. No RBC were added to these blanks. Standards and samples were then incubated with RBC (100 ul of diluted RBC added to 900 ul of standards and samples) for 30 minutes at room temperature (RT). Samples were then centrifuged 5 minutes at 900 g. Optical density at 540 nm was measured after centrifugation.
Determination of lytic activity was carried out by a limit test.
1. Limit of detection (LOD) was defined as the lowest concentration of QS21 leading to an OD: • Higher than the base level (OD>0.1) • Around three times higher than OD's buffer (the “0 ug” QS21) • In the ascendant part of the curve • Determined for each test.
2. QS21 lytic activity was held to be positive in the adjuvant samples if the OD for the adjuvant sample was greater than the ODLOD. […]

Data set [3] can be described thus: DLS and nephelometry of Mtb72f at varied pH and NaCl. It is filed as physicochemical. The following applies: pH 6.1, 7.5, 8.5; 0, 150, 450 mM sodium chloride; 24 hours at 4° C. or 25° C.
A short description of data set [4]: DLS antigen size of M72 at varied pH and NaCl (salting out). It counts as physicochemical. The method, then:
Purified bulk antigen (M72 with two N-terminal His residues, SEQ ID No: 3, as prepared in Example 8) was diluted to a concentration of 100 ug/ml in three different buffers (10 mM phosphate buffer at pH 6.1, 20 mM Tris buffer at pH 7.5 and 20 mM Tris buffer at pH 8.5) containing final sodium chloride concentrations of 0, 50, 150, 300 and 450 mM.
Samples were analysed immediately (TO), stored overnight at 4° C. before analysis (T0 O/N) or stored at 25° C. for 24 hours before analysis (T24 h 25° C.).
DLS was performed using a Malvern Zetasizer Nano ZS from Malvern Instruments (UK). The instrument was operated using a laser wavelength of 633 nm and power of 4 mW. Scattered light was detected at 173° at a temperature of 22° C. The Z-average diameter (Zav) and polydispersity index (pi) are calculated by the instrument software.

Where [5] appears, read: pH 6.1, even in the absence of sodium chloride.
[6] abbreviates: pH 7.5 or 8.5, over 24 hours at 25° C., particularly 0 or 50 mM sodium chloride.
[7] abbreviates: pH 7.5 or 8.5, sodium chloride increased to 150 mM or greater.

On to `[Cl-].[Na+]` [sodium chloride], for which the Conductivity in data set [1] (sodium chloride standard solution 75 mM in water for injection) was 8.2 mS/cm; in data set [1] (sodium chloride standard solution 100 mM) it was 10.7 mS/cm; in data set [1] (sodium chloride standard solution 150 mM), 15.6 mS/cm; in data set [1] (sodium chloride standard solution 250 mM), 23.9 mS/cm; in data set [1] (sodium chloride standard solution 300 mM), 30.0 mS/cm.
In the case of QS21, the OD came to 0.052 in data set [2] (0.5 ug QS21, 150 mM sodium chloride buffer, optical density at 540 nm, 30 minutes RT with RBC); 0.073 in data set [2] (0.6 ug QS21, 150 mM sodium chloride buffer, 540 nm); 0.091 in data set [2] (0.7 ug QS21, 150 mM sodium chloride buffer, 540 nm); 0.096 in data set [2] (0.8 ug QS21, 150 mM sodium chloride buffer, 540 nm); 0.12 in data set [2] (0.9 ug QS21 (limit of detection), 150 mM sodium chloride buffer, 540 nm); 0.195 in data set [2] (1 ug QS21, 150 mM sodium chloride buffer, 540 nm). Moreover, the OD in data set [2] (1.1 ug QS21, 150 mM sodium chloride buffer, 540 nm) was determined as 0.212; in data set [2] (1.2 ug QS21, 150 mM sodium chloride buffer, 540 nm), 0.348; in data set [2] (1.3 ug QS21, 150 mM sodium chloride buffer, 540 nm), 0.479; in data set [2] (1.4 ug QS21, 150 mM sodium chloride buffer, 540 nm), 0.612; in data set [2] (1.5 ug QS21, 150 mM sodium chloride buffer, 540 nm), 0.669; in data set [2] (2 ug QS21, 150 mM sodium chloride buffer, 540 nm), 1.139. For the same molecule, the OD is given as 1.294 in data set [2] (2.5 ug QS21, 150 mM sodium chloride buffer, 540 nm); 1.391 in data set [2] (3 ug QS21, 150 mM sodium chloride buffer, 540 nm); 1.416 in data set [2] (5 ug QS21, 150 mM sodium chloride buffer, 540 nm).

B1: Mtb72f: purified bulk antigen, Mtb72f with 6 his residues, SEQ ID No: 7 (protein)
chain: MHHHHHHTAASDNFQLSQGGQGFAIPIGQAMAIAGQIRSGGGSPTVHIGPTAFLGLGVVDNNGNGARVQRVVGSAPAASLGISTGDVITAVDGAPINSATAMADALNGHHPGDVISVTWQTKSGGTRTGNVTLAEGPPAEFMVDFGALPPEINSARMYAGPGSASLVAAAQMWDSVASDLFSAASAFQSVVWGLTVGSWIGSSAGLMVAAASPYVAWMSVTAGQAELTAAQVRVAAAAYETAYGLTVPPPVIAENRAELMILIATNLLGQNTPAIAVNEAEYGEMWAQDAAAMFGYAAATATATATLLPFEEAPEMTSAGGLLEQAAAVEEASDTAAANQLMNNVPQALQQLAQPTQGTTPSSKLGGLWKTVSPHRSPISNMVSMANNHMSMTNSGVSMTNTLSSMLKGFAPAAAAQAVQTAAQNGVRAMSSLGSSLGSSGLGGGVAANLGRAASVGSLSVPQAWAAANQAVTPAARALPLTSLTSAAERGPGQMLGGLPVGQMGARAGGGLSGVLRVPPRPYVMPHSPAAGDIAPPALSQDRFADFPALPLDPSAMVAQVGPQVVNINTKLGYNNAVGAGTGIVIDPNGVVLTNNHVIAGATDINAFSVGSGQTYGVDVVGYDRTQDVAVLQLRGAGGLPSAAIGGGVAVGEPVVAMGNSGGQGGTPRAVPGRVVALGQTVQASDSLTGAEETLNGLIQFDAAIQPGDSGGPVVNGLGQVVGMNTAAS
modifications: 6 His tag; Mtb72f fusion with 6 additional his residues
Regarding B1, the “sensitivity of size (DLS and nephelometry) to salt and pH” value in data set [3] was “sensitive to salt concentration and pH”.

B2: M72: purified bulk antigen, M72 with two N-terminal His residues, SEQ ID No: 3 (protein)
chain: MHHTAASDNFQLSQGGQGFAIPIGQAMAIAGQIRSGGGSPTVHIGPTAFLGLGVVDNNGNGARVQRVVGSAPAASLGISTGDVITAVDGAPINSATAMADALNGHHPGDVISVTWQTKSGGTRTGNVTLAEGPPAEFMVDFGALPPEINSARMYAGPGSASLVAAAQMWDSVASDLFSAASAFQSVVWGLTVGSWIGSSAGLMVAAASPYVAWMSVTAGQAELTAAQVRVAAAAYETAYGLTVPPPVIAENRAELMILIATNLLGQNTPAIAVNEAEYGEMWAQDAAAMFGYAAATATATATLLPFEEAPEMTSAGGLLEQAAAVEEASDTAAANQLMNNVPQALQQLAQPTQGTTPSSKLGGLWKTVSPHRSPISNMVSMANNHMSMTNSGVSMTNTLSSMLKGFAPAAAAQAVQTAAQNGVRAMSSLGSSLGSSGLGGGVAANLGRAASVGSLSVPQAWAAANQAVTPAARALPLTSLTSAAERGPGQMLGGLPVGQMGARAGGGLSGVLRVPPRPYVMPHSPAAGDIAPPALSQDRFADFPALPLDPSAMVAQVGPQVVNINTKLGYNNAVGAGTGIVIDPNGVVLTNNHVIAGATDINAFSVGSGQTYGVDVVGYDRTQDVAVLQLRGAGGLPSAAIGGGVAVGEPVVAMGNSGGQGGTPRAVPGRVVALGQTVQASDSLTGAEETLNGLIQFDAAIQPGDAGGPVVNGLGQVVGMNTAAS
modifications: M72 fusion with 2 additional his residues
As to B2, the “antigen size (DLS)” value in data set [4] (pH 6.1, 0 mM sodium chloride, T0) was 35 nm; in data set [4] (pH 6.1, 50 mM sodium chloride, T0) it was 58 nm; in data set [4] (pH 6.1, 50 mM sodium chloride, after 24 hours at 25° C.) it was 79 nm. Also, the “stability of antigen size” value in data set [4] (setting [5]) is reported as “not stable”; in data set [4] (setting [6]), “relatively stable”. The “change in antigen size” value in data set [4] (setting [7]) is listed as “clear increase”. Also, the stability of antigenicity entry by setting is: under setting [5], “not stable”; under setting [6], “relatively stable”. The change in antigenicity entry under setting [7] was “reduction”.

These data come from patent publication US10441648B2, “Mycobacterium antigenic composition” (priority 2010, dated 2019).
